Where two headings read alike, the source gives them in different places.
Tests used:
[1] = tested on: Key Broadleaf Weed and Crop Species; experiment: Post-emergent Test II herbicidal activity (Table 15); type: in vivo; conditions: post-emergence, 336 h, 14 d; for pest or weed control at 35 g/ha: 35 g ai/ha; for pest or weed control at 70 g/ha: 70 g ai/ha; for pest or weed control at 140 g/ha: 140 g ai/ha
Procedure, shortened: (§1)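 Plants at first-second true leaf stage, grown 7-21 d in greenhouse (~15 h photoperiod, 23-29 °C day), were track-sprayed at 187 L/ha with compound in acetone/DMSO/water/isopropanol/crop oil/Triton X-155 at a high rate plus 1/2× to 1/16× dilutions. Injury scored visually after 14 d versus untreated plants, 0 (none) to 100% (complete kill).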

[2] = tested on: Key Grass and Sedge Weeds as well as Grass Crops; experiment: Post-emergent Test II herbicidal activity (Table 16); type: in vivo; conditions: post-emergence, 336 h; for pest or weed control at 35 g/ha: 35 g ai/ha; for pest or weed control at 70 g/ha: 70 g ai/ha; for pest or weed control at 140 g/ha: 140 g ai/ha
Procedure, shortened: as §1

[3] = Abutilon theophrasti, velvetleaf (Abutilon theophrasti), read-out: Visual Growth Reduction (%) 14 Days After Application, ABUTH
[4] = Amaranthus retroflexus, redroot pigweed (Amaranthus retroflexus), read-out: Visual Growth Reduction (%) 14 Days After Application, AMARE
[5] = Brassica napus, oilseed rape, canola (Brassica napus), read-out: Visual Growth Reduction (%) 14 Days After Application, BRSNN
[6] = Chenopodium album, lambsquarters (Chenopodium album), read-out: Visual Growth Reduction (%) 14 Days After Application, CHEAL
[7] = Euphorbia heterophylla, wild poinsettia (Euphorbia heterophylla), read-out: Visual Growth Reduction (%) 14 Days After Application, EPHHL
[8] = Helianthus annuus, sunflower (Helianthus annuus), read-out: Visual Growth Reduction (%) 14 Days After Application, HELAN
[9] = Cyperus esculentus, yellow nutsedge (Cyperus esculentus), 14 d, read-out: Visual Growth Reduction (%) 14 Days After Application, CYPES
[10] = Echinochloa crus-galli, barnyardgrass (Echinochloa crus-galli), 14 d, read-out: Visual Growth Reduction (%) 14 Days After Application, ECHCG
[11] = Oryza sativa, rice (Oryza sativa), 14 d, read-out: Visual Growth Reduction (%) 14 Days After Application, ORYSA
[12] = Setaria faberi, giant foxtail (Setaria faberi), 14 d, read-out: Visual Growth Reduction (%) 14 Days After Application, SETFA
[13] = Triticum aestivum, wheat, spring (Triticum aestivum), 14 d, read-out: Visual Growth Reduction (%) 14 Days After Application, TRZAS
[14] = Zea mays, maize, corn (Zea mays), 14 d, read-out: Visual Growth Reduction (%) 14 Days After Application, ZEAMX
[15] = Cyperus esculentus, yellow nutsedge (Cyperus esculentus), 14 days after application, read-out: Visual Growth Reduction (%) 14 Days After Application CYPES
[16] = Echinochloa crus-galli, barnyardgrass (Echinochloa crus-galli), 14 days after application, read-out: Visual Growth Reduction (%) 14 Days After Application ECHCG
[17] = Oryza sativa, rice (Oryza sativa), 14 days after application, read-out: Visual Growth Reduction (%) 14 Days After Application ORYSA
[18] = Triticum aestivum, wheat, spring (Triticum aestivum), 14 days after application, read-out: Visual Growth Reduction (%) 14 Days After Application TRZAS
[19] = Zea mays, maize, corn (Zea mays), 14 days after application, read-out: Visual Growth Reduction (%) 14 Days After Application ZEAMX

melting point	Compound	pest or weed control at 35 g/ha [1, 3]	pest or weed control at 70 g/ha [1, 3]	pest or weed control at 140 g/ha [1, 3]	pest or weed control at 35 g/ha [1, 4]	pest or weed control at 70 g/ha [1, 4]	pest or weed control at 140 g/ha [1, 4]	pest or weed control at 35 g/ha [1, 5]	pest or weed control at 70 g/ha [1, 5]	pest or weed control at 140 g/ha [1, 5]	pest or weed control at 35 g/ha [1, 6]	pest or weed control at 70 g/ha [1, 6]	pest or weed control at 140 g/ha [1, 6]	pest or weed control at 35 g/ha [1, 7]	pest or weed control at 70 g/ha [1, 7]	pest or weed control at 140 g/ha [1, 7]	pest or weed control at 35 g/ha [1, 8]	pest or weed control at 70 g/ha [1, 8]	pest or weed control at 140 g/ha [1, 8]	other results
130 °C	COC(=O)c1nc(-c2cc3occc3cc2F)cc(N)c1Cl [Compound 2.12]	85 to 94%	95 to 100%	95 to 100%	95 to 100%	95 to 100%	95 to 100%	75 to 84%	85 to 94%	95 to 100%	95 to 100%	95 to 100%	95 to 100%	95 to 100%	95 to 100%	95 to 100%	30 to 44%	60 to 74%	60 to 74%	pest or weed control at 35 g/ha [2, 9]: 0 to 29%; pest or weed control at 70 g/ha [2, 9]: 0 to 29%; pest or weed control at 140 g/ha [2, 9]: 0 to 29%; pest or weed control at 35 g/ha [2, 10]: 95 to 100%; pest or weed control at 70 g/ha [2, 10]: 95 to 100%; pest or weed control at 140 g/ha [2, 10]: 95 to 100%; pest or weed control at 35 g/ha [2, 11]: 0 to 29%; pest or weed control at 70 g/ha [2, 11]: 0 to 29%; pest or weed control at 140 g/ha [2, 11]: 0 to 29%; pest or weed control at 35 g/ha [2, 12]: 45 to 59%; pest or weed control at 70 g/ha [2, 12]: 60 to 74%; pest or weed control at 140 g/ha [2, 12]: 60 to 74%; pest or weed control at 35 g/ha [2, 13]: 0 to 29%; pest or weed control at 70 g/ha [2, 13]: 0 to 29%; pest or weed control at 140 g/ha [2, 13]: 0 to 29%; pest or weed control at 35 g/ha [2, 14]: 0 to 29%; pest or weed control at 70 g/ha [2, 14]: 30 to 44%; pest or weed control at 140 g/ha [2, 14]: 60 to 74%
165 to 167 °C	Nc1c(F)c(-c2ccc3ccsc3c2)nc(C(=O)O)c1Cl [Compound 3.13]	0 to 29%	0 to 29%	75 to 84%	95 to 100%	95 to 100%	95 to 100%	0 to 29%	0 to 29%	60 to 74%	85 to 94%	95 to 100%	95 to 100%	0 to 29%	0 to 29%	60 to 74%	85 to 94%	85 to 94%	85 to 94%	pest or weed control at 35 g/ha [2, 15]: 0 to 29%; pest or weed control at 70 g/ha [2, 15]: 0 to 29%; pest or weed control at 140 g/ha [2, 15]: 0 to 29%; pest or weed control at 35 g/ha [2, 16]: 60 to 74%; pest or weed control at 70 g/ha [2, 16]: 60 to 74%; pest or weed control at 140 g/ha [2, 16]: 75 to 84%; pest or weed control at 35 g/ha [2, 17]: 0 to 29%; pest or weed control at 70 g/ha [2, 17]: 0 to 29%; pest or weed control at 140 g/ha [2, 17]: 0 to 29%; pest or weed control at 35 g/ha [2, 18]: 0 to 29%; pest or weed control at 70 g/ha [2, 18]: 0 to 29%; pest or weed control at 140 g/ha [2, 18]: 0 to 29%; pest or weed control at 35 g/ha [2, 19]: 60 to 74%; pest or weed control at 70 g/ha [2, 19]: 60 to 74%; pest or weed control at 140 g/ha [2, 19]: 60 to 74%

Source: patent US20170050957A1, “4-AMINO-6-(HETEROCYCLIC)PICOLINATES AND 6-AMINO-2-(HETEROCYCLIC)PYRIMIDINE-4-CARBOXYLATES AND THEIR USE AS HERBICIDES” (Dow AgroSciences LLC, priority 2013, published 2017)
